Test results as given in patent publication US12447137B2, “Composition for prevention, amelioration, or treatment of cancer” (EWHA UNIVERSITY—INDUSTRY COLLABORATION FOUNDATION, priority 2019, dated 2025).

Legend:
[1] = system: p-AMPK (Thr172); assay: AMPK activation by p-AMPK (Thr172) Western blot in brain cancer cell lines; type: cell-based, human; settings: 10 μM, 12 hours, compared to untreated group
Protocol: (§1) [3-2] The three breast cancer cell lines (4T1, BT549, and MDA-MB-231) of Experimental Method 1 were treated with each of the compound of Production Example 6 and 13 compounds, including the compounds of Production Examples 1 to 5 and 8 to 15 having a similar structure (YE-01, 02, 03, 04, 05, 08, 09, 10, 11, 12, 13, 14 and 15), at a concentration of 10 μM, and then cultured for 24 hours. In addition, each of two types of gastric cancer cell lines, brain cancer cell lines and pancreatic cancer cell lines was treated with the compound of Production Example 6 or the compound of Production Example 8 having a similar structure at a concentration of 10 μM and then cultured for 12 hours. Thereafter, the cells were harvested and lysed in RIPA buffer, and the protein was electrophoresed by SDS-PAGE, and then the expression level of the protein was analyzed using antibodies specific for AMPK and phospho-AMPK (Thr172). GAPDH or β-actin was used as a loading control for protein quantification.

[2] = system: p-AMPK (Thr172); assay: AMPK activation by p-AMPK (Thr172) Western blot in pancreatic cancer cell lines; type: cell-based, human; settings: 10 μM, 12 hours, compared to untreated group
Protocol: as §1

[3] = system: p-AMPK (Thr172); assay: AMPK activation by p-AMPK (Thr172) Western blot in MDA-MB-231 cells; type: cell-based, human; settings: MDA-MB-231, 10 μM, 24 hours; FIG. 3B
Protocol: (§2) [3-1] The breast cancer cell line of Experimental Method 1 above was treated with the compound of Production Example 6 at a concentration of 0 to 30 μM, and then cultured for 24 hours. Thereafter, the cells were harvested and lysed in RIPA buffer, and the protein was electrophoresed by SDS-PAGE, and then the expression level of the protein was analyzed using antibodies specific for AMPK and phospho-AMPK (Thr172). GAPDH or β-actin was used as a loading control for protein quantification.
as §1

[4] = system: p-AMPK (Thr172); assay: AMPK activation by p-AMPK (Thr172) Western blot in 4T1 cells; type: cell-based, mouse; settings: 4T1, 10 μM, 24 hours; FIG. 3B
Protocol: as §2, §1

[5] = system: p-AMPK (Thr172); assay: AMPK activation by p-AMPK (Thr172) Western blot in gastric cancer cell lines; type: cell-based, human; settings: 10 μM, 12 hours, compared to untreated group
Protocol: as §1

[6] = system: MDA-MB-231 cell line; assay: Cell viability assay (WST-1); type: cell-based; settings: Homo sapiens; MDA-MB-231, 10 μM, 24 hours; FIG. 3A; read-out: cancer cell viability inhibited
Protocol: (§3) [4-1-1] The breast cancer cell line of Experimental Method 1 was treated with 5-aminoimidazole-4-carboxamide ribonucleotide (AICAR) (which is not the compound of Production Example 6) or the compound of Production Example 6 at a concentration of 0 to 30 μM, and then cultured for 24 hours, 48 hours and 72 hours. Thereafter, the cultured cells were treated with WST-1 reagent, and then the absorbance at a wavelength of 450 nm was measured. Here, the WST-1 reagent allows the cell viability to be measured by changing the color of the culture medium depending on the level of the mitochondrial dehydrogenase present in the cell.
(§4) [4-1-2] The breast cancer cell line 4T1, BT549 or MDA-MB-231 of Experimental Method 1 was treated with each of the compound of Production Example 6 and 13 compounds, including the compounds of Production Examples 1 to 5 and 8 to 15 having a similar structure (YE-01, 02, 03, 04, 05, 08, 09, 10, 11, 12, 13, 14 and 15), at a concentration of 0 to 50 μM, and then cultured for 24 hours. Each of three types of gastric cancer cell lines, brain cancer cell lines and pancreatic cancer cell lines was treated with the compound of Production Example 6 or the compound of Production Example 8 having a similar structure at a concentration of 0 to 50 μM, and then cultured for 24 hours. Thereafter, the cultured cells were treated with WST-1 reagent according to the manufacturer's instruction, and after a certain time, the absorbance at a wavelength of 450 nm was measured. Here, the WST-1 reagent allows the cell viability to be measured by changing the color of the culture medium depending on the level of the mitochondrial dehydrogenase present in the cell.

[7] = system: BT549 cell line; assay: Cell viability assay (WST-1); type: cell-based; settings: Homo sapiens, BT-549; BT549, 10 μM, 24 hours; FIG. 3A; read-out: cancer cell viability inhibited
Protocol: as §3, §4

[8] = system: 4T1 cell line; assay: Cell viability assay (WST-1); type: cell-based; settings: Mus musculus; 4T1, 10 μM, 24 hours; FIG. 3A; read-out: cancer cell viability inhibited
Protocol: as §3, §4

[9] = system: p-AMPK (Thr172); assay: AMPK activation by p-AMPK (Thr172) Western blot in BT549 cells; type: cell-based, human; settings: BT549, 10 μM, 24 hours; FIG. 3B
Protocol: as §2
as §1, with “In addition, each of two types of gastric cancer cell lines, brain cancer cell lines and pancreatic cancer cell lines was treated with the compound of Production Example 6 or the compound of Production Example 8 having a similar structure at a concentration of 10 μM and then cultured for 12 hours.” left out

Compound | expression of p-AMPK [1] | expression of p-AMPK [2] | p-AMPK level [3] | p-AMPK level [4] | expression of p-AMPK [5] | cytotoxicity at 10 µM [6] [%] | cytotoxicity at 10 µM [7] [%] | cytotoxicity at 10 µM [8] [%] | p-AMPK level [9]
COc1ccc(OC)c(/C=C/C(=O)c2cccc(NS(=O)(=O)c3ccc(Cl)cc3)c2)c1 [Production Example 8, (E)-4-chloro-N-(3-(3-(2,5-dimethoxyphenyl)acryloyl)phenyl)benzenesulfonamide] | increased | increased | effectively increased | effectively increased | increased | ≥ 50 | ≥ 50 | ≥ 50 | effectively increased
NC(=O)c1ncn([C@@H]2O[C@H](COP(=O)(O)O)[C@@H](O)[C@H]2O)c1N [AICAR, 5-aminoimidazole-4-carboxamide ribonucleotide, reference compound] | insignificant effect | insignificant effect | – | – | insignificant effect | – | – | – | –
